# Measurements as given in PubChem BioAssay AID652124 (The Scripps Research Institute Molecular Screening Center, 2013).
# The source made the active and inactive calls. No rule for the calls is given here.
# Biological target: Perilipin-5 (Homo sapiens) + 1-acylglycerol-3-phosphate O-acyltransferase ABHD5 (Homo sapiens) (UniProt Q00G26+Q8WTS1)
# Test: ABHD5-PLIN5 binding inhibitors, late-stage follow-up, biochemical, luminescence, dose response, round 2 (AID 652124)
# Conditions: biochemical ABHD5-PLIN5 interaction
# Perilipin-5 (Homo sapiens) + 1-acylglycerol-3-phosphate O-acyltransferase ABHD5 (Homo sapiens), sequence (Q00G26 whole entry, looked up): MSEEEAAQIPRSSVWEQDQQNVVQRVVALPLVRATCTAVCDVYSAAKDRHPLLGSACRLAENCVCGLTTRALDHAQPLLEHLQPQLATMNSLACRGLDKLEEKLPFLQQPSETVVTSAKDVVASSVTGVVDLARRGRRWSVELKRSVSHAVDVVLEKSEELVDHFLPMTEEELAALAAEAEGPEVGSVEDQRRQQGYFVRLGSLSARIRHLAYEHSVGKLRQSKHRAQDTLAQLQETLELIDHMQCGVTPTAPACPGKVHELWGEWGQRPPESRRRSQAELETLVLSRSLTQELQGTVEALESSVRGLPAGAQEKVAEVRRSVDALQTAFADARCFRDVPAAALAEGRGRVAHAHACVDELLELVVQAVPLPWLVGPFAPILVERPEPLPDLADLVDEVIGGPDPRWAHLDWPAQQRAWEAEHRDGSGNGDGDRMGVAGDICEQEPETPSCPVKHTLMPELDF
# Perilipin-5 (Homo sapiens) + 1-acylglycerol-3-phosphate O-acyltransferase ABHD5 (Homo sapiens), sequence (Q8WTS1 whole entry, looked up): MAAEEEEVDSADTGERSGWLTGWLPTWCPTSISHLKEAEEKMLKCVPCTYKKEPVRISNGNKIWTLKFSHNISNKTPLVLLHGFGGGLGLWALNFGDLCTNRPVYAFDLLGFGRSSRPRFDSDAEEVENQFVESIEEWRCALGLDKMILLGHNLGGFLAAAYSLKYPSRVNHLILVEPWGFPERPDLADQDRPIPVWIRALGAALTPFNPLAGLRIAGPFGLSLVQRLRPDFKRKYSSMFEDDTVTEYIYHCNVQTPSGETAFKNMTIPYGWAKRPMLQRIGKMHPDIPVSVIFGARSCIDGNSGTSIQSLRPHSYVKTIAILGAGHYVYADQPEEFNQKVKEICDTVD
row,IC50,Compound
1,> 39.8 µM (inactive),O=C(CCc1nc2ccccc2s1)N1CCN(S(=O)(=O)c2ccc3c(c2)OCCO3)CC1
2,> 39.8 µM (inactive),CC(C)N1C(=O)c2ccccc2Oc2ccc(NC(=O)c3ccccc3)cc21
3,> 39.8 µM (inactive),CCCCCCNC(=O)Nc1ccc2c(c1)Sc1ccccc1C(=O)N2C
4,> 39.8 µM (inactive),CCCCCNC(=O)Nc1ccc2c(c1)Sc1ccccc1C(=O)N2C
5,inactive,O=C(Cc1ccc2c(c1)CCCC2)N1CCN(S(=O)(=O)c2ccc3c(c2)OCCO3)CC1
6,> 39.8 µM (inactive),O=C(Cc1cccc(F)c1)N1CCN(S(=O)(=O)c2ccc3c(c2)OCCO3)CC1
7,> 39.8 µM (inactive),O=C(CCc1c[nH]c2ccccc12)N1CCN(S(=O)(=O)c2ccc3c(c2)OCCO3)CC1
8,1.76 µM,Cc1ccc(CS(=O)(=O)c2ncc(Cl)c(C(=O)Nc3cccc(C(F)(F)F)c3)n2)cc1
9,2.17 µM,O=C(Nc1ccc2ccccc2c1)c1nc(S(=O)(=O)Cc2ccccc2)ncc1Cl
10,1.72 µM,CN1C(=O)c2ccccc2Sc2ccc(NC(=O)NCCCc3ccccc3)cc21
11,> 39.8 µM (inactive),CC(NC(=O)CN1CCN(S(=O)(=O)c2ccc3c(c2)OCCCO3)CC1)c1cc2ccccc2o1 (configuration not stated)
12,inactive,CN(C)CCCN(C(=O)Cc1ccc(F)cc1)c1nc2ccc(Cl)cc2s1
13,inactive,CN(C)CCCN(C(=O)C1CCCCC1)c1nc2cc(Br)ccc2s1
14,inactive,CN(C)CCCN(C(=O)c1cc2ccccc2oc1=O)c1nc2ccc(Cl)cc2s1
15,1.45 µM,CS(=O)(=O)c1ncc(Cl)c(C(=O)Nc2ccc(C(F)(F)F)cc2)n1
16,> 39.8 µM (inactive),COc1ccc(OCC(=O)Nc2ccc3c(c2)N(C(C)C)C(=O)c2ccccc2O3)cc1
17,inactive,CN(C)CCCN(C(=O)CCc1ccccc1)c1nc2ccc(Cl)cc2s1
18,4.98 µM,CN1C(=O)c2ccccc2Sc2ccc(NC(=O)NCCc3cccs3)cc21
19,6.48 µM,CCS(=O)(=O)c1ncc(Cl)c(C(=O)Nc2ccc(S(N)(=O)=O)cc2)n1
20,3.56 µM,CN(C(=O)c1nc(S(C)(=O)=O)ncc1Cl)c1ccccc1
21,> 39.8 µM (inactive),CCCC(=O)Nc1ccc2c(c1)C(=O)N(C)c1ccccc1O2
22,> 39.8 µM (inactive),CCCC(=O)N(CCCN1CCOCC1)c1nc2ccc(Cl)cc2s1
23,4.24 µM,Cc1ccc(NC(=O)c2nc(S(C)(=O)=O)ncc2Cl)cc1
24,3.88 µM,CCc1ccc2c(CC(=O)N3CCN(S(=O)(=O)c4ccc5c(c4)OCCO5)CC3)coc2c1

row,IC50,Compound
1,2.95 µM,COc1ccc(CCNC(=O)c2nc(S(=O)(=O)Cc3ccc(F)cc3)ncc2Cl)cc1OC
2,4.44 µM,CCCS(=O)(=O)c1ncc(Cl)c(C(=O)Nc2ccc(C(=O)OC)cc2)n1
3,> 39.8 µM (inactive),CN(C)CCCN(C(=O)C1CCCCC1)c1nc2cc(Cl)ccc2s1
4,4.13 µM,CCS(=O)(=O)c1ncc(Cl)c(C(=O)Nc2ccc(C)cc2)n1
5,> 39.8 µM (inactive),CN1C(=O)c2ccccc2Oc2ccc(NC(=O)c3cccs3)cc21
6,4.72 µM,Cc1ccc2c(CC(=O)N3CCN(S(=O)(=O)c4ccc5c(c4)OCCCO5)CC3)coc2c1C
7,3.8 µM,NS(=O)(=O)c1ccc(NC(=O)c2nc(S(=O)(=O)Cc3ccccc3)ncc2Cl)cc1
8,2.19 µM,Cc1ccc(CS(=O)(=O)c2ncc(Cl)c(C(=O)Nc3cccc4ccccc34)n2)cc1
9,> 39.8 µM (inactive),O=C(CCn1cnc2ccccc21)N1CCN(S(=O)(=O)c2ccc3c(c2)OCCO3)CC1
10,5.91 µM,Cc1ccc(CS(=O)(=O)c2ncc(Cl)c(C(=O)N3CCN(C)CC3)n2)cc1
11,> 39.8 µM (inactive),CN1C(=O)c2ccccc2Oc2ccc(NC(=O)c3cc4ccccc4[nH]3)cc21
12,3.7 µM,CN1C(=O)c2ccccc2Sc2ccc(NC(=O)NCCc3ccccc3)cc21
13,> 39.8 µM (inactive),CCCC(=O)Nc1ccc2c(c1)C(=O)N(C)c1cc(C)ccc1O2
14,> 39.8 µM (inactive),COc1ccc(CC(=O)N2CCCN(S(=O)(=O)c3ccc(C)cc3)CC2)cc1OC
15,inactive,CCCCCCCNC(=O)Nc1ccc2c(c1)Sc1ccccc1C(=O)N2C
16,1.64 µM,O=C(c1nc(S(=O)(=O)Cc2ccccc2)ncc1Cl)N(Cc1ccccc1)Cc1ccco1
17,3.15 µM,Cc1ccc(CS(=O)(=O)c2ncc(Cl)c(C(=O)NCc3ccc4c(c3)OCO4)n2)cc1
18,inactive,Cc1ccc2cc(CC(=O)N3CCN(S(=O)(=O)c4ccc5c(c4)OCCO5)CC3)oc2c1
19,> 13.3 µM (inactive),Cc1ccc(CS(=O)(=O)c2ncc(Cl)c(C(=O)Nc3nnc(C(C)C)s3)n2)cc1
20,> 39.8 µM (inactive),O=C(C1COc2ccccc2O1)N1CCN(S(=O)(=O)c2ccc3c(c2)OCCO3)CC1 (configuration not stated)
21,4.12 µM,CCCS(=O)(=O)c1ccc(Cl)c(C(=O)Nc2ccc(C(=O)OCC)cc2)c1
22,> 39.8 µM (inactive),COc1ccc(CC(=O)N2CCN(S(=O)(=O)c3ccc4c(c3)OCCCO4)CC2)cc1
23,inactive,CCCNC(=O)Nc1ccc2c(c1)N(CC)C(=O)c1ccccc1S2
